The assay relates to BDF1 mice, L1210 leukemia sc, survival T/C. Briefly: NCI In Vivo Anticancer Drug Screen. Data for tumor model L1210 Leukemia (subcutaneous) in B6D2F1 (BDF1) mice. Conditions: endpoint: median survival time, higher = longer survival. In a few lines: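 Antitumor activity is assessed in mice with transplanted tumors by comparing the treated group (T) with the vehicle control group (C).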

The mark [1] stands for this setting: dose: 5.0 mg/kg/injection, schedule: Q01DX Z (sc), vehicle: methylcellulose (MC).

Several values for one entry are separate records, joined by “and”; a condition that tells them apart may be missing. Equal values may be shown once. Inconclusive results and toxic doses are left out. Square brackets hold non-standard residues; d marks the D form. Peptide text beside a SMILES is read from it. Ac5c = NC1(C(=O)O)CCCC1

With `O=c1ccn(C2OC(CO)C(O)C2O)c(=O)[nH]1` (stereo not given), the T/C (dose: 65.0 mg/kg/injection, schedule: Q01DX Z (sc), vehicle: saline) was 100 % of control; the T/C (dose: 108.0 mg/kg/injection, schedule: Q01DX Z (sc), vehicle: saline) was 100 % of control; the T/C (dose: 180.0 mg/kg/injection, schedule: Q01DX Z (sc), vehicle: saline) was 95 % of control and 111 % of control; the T/C (dose: 300.0 mg/kg/injection, schedule: Q01DX Z (sc), vehicle: saline) is 90 % of control and 100 % of control; the T/C (dose: 500.0 mg/kg/injection, schedule: Q01DX Z (sc), vehicle: saline) is 90 % of control and 100 % of control; the T/C (dose: 833.0 mg/kg/injection, schedule: Q01DX Z (sc), vehicle: saline) was 100 % of control. Besides, the T/C (dose: 1388.0 mg/kg/injection, schedule: Q01DX Z (sc), vehicle: saline) was 100 % of control.

For the molecule `CN(C)c1ccc(/C=C/c2ccc3ccccc3[n+]2C)cc1`, the T/C by setting is: (dose: 0.65 mg/kg/injection, schedule: Q01DX Z (sc), vehicle: methylcellulose (MC)) 100 % of control; (dose: 1.08 mg/kg/injection, schedule: Q01DX Z (sc), vehicle: methylcellulose (MC)) 100 % of control; (dose: 1.8 mg/kg/injection, schedule: Q01DX Z (sc), vehicle: methylcellulose (MC)) 104 % of control; (dose: 3.0 mg/kg/injection, schedule: Q01DX Z (sc), vehicle: methylcellulose (MC)) 104 % of control; under setting [1], 104 % of control.

As to `C[C@@H](CN1CC(=O)NC(=O)C1)N1CC(=O)NC(=O)C1`, the T/C (dose: 8.0 mg/kg/injection, schedule: Q01DX009 (ip), vehicle: water) was 103 % of control; the T/C (dose: 16.0 mg/kg/injection, schedule: Q01DX009 (ip), vehicle: water) is 105 % of control and 115 % of control; the T/C (dose: 32.0 mg/kg/injection, schedule: Q01DX009 (ip), vehicle: water) was 114 % of control; the T/C (dose: 128.0 mg/kg/injection, schedule: Q01DX009 (ip), vehicle: water) is 150 % of control; the T/C (dose: 512.0 mg/kg/injection, schedule: Q01DX009 (ip), vehicle: water) is 121 % of control.

With `CCOC(C)C(=O)C=O` (stereo not given), the T/C by setting is: (dose: 23.0 mg/kg/injection, schedule: Q01DX Z (sc), vehicle: water) 100 % of control; (dose: 39.0 mg/kg/injection, schedule: Q01DX Z (sc), vehicle: water) 100 % of control; (dose: 65.0 mg/kg/injection, schedule: Q01DX Z (sc), vehicle: water) 100 % of control; (dose: 108.0 mg/kg/injection, schedule: Q01DX Z (sc), vehicle: water) 100 % of control; (dose: 180.0 mg/kg/injection, schedule: Q01DX Z (sc), vehicle: water) 100 % of control; (dose: 300.0 mg/kg/injection, schedule: Q01DX Z (sc), vehicle: water) 100 % of control. Besides, the T/C (dose: 500.0 mg/kg/injection, schedule: Q01DX Z (sc), vehicle: water) is 105 % of control.

As to `O=C1CN=C(c2ccc[nH]2)c2cc(Cl)ccc2N1`, the T/C was 100 % of control (dose: 2.5 mg/kg/injection, schedule: Q01DX009 (ip), vehicle: clinical formulation); 88 % of control (dose: 2.5 mg/kg/injection, schedule: Q01DX009 (sc), vehicle: clinical formulation); 100 % of control (dose: 5.0 mg/kg/injection, schedule: Q01DX009 (ip), vehicle: clinical formulation); 88 % of control (dose: 5.0 mg/kg/injection, schedule: Q01DX009 (sc), vehicle: clinical formulation); 88 % of control (dose: 10.0 mg/kg/injection, schedule: Q01DX009 (ip), vehicle: clinical formulation); 88 % of control (dose: 10.0 mg/kg/injection, schedule: Q01DX009 (sc), vehicle: clinical formulation). Also, the T/C was 100 % of control (dose: 12.5 mg/kg/injection, schedule: Q01DX009 (ip), vehicle: Klucel (hydroxypropylcellulose) (HPC)); 94 % of control (dose: 12.5 mg/kg/injection, schedule: Q01DX009 (sc), vehicle: Klucel (hydroxypropylcellulose) (HPC)); 100 % of control (dose: 20.0 mg/kg/injection, schedule: Q01DX009 (ip), vehicle: clinical formulation); 88 % of control (dose: 20.0 mg/kg/injection, schedule: Q01DX009 (sc), vehicle: clinical formulation); 88 % of control (dose: 25.0 mg/kg/injection, schedule: Q01DX009 (ip), vehicle: Klucel (hydroxypropylcellulose) (HPC)); 100 % of control (dose: 25.0 mg/kg/injection, schedule: Q01DX009 (sc), vehicle: Klucel (hydroxypropylcellulose) (HPC)). The T/C is, setting by setting: (dose: 40.0 mg/kg/injection, schedule: Q01DX009 (ip), vehicle: clinical formulation) 100 % of control; (dose: 40.0 mg/kg/injection, schedule: Q01DX009 (sc), vehicle: clinical formulation) 88 % of control; (dose: 50.0 mg/kg/injection, schedule: Q01DX009 (ip), vehicle: Klucel (hydroxypropylcellulose) (HPC)) 100 % of control; (dose: 50.0 mg/kg/injection, schedule: Q01DX009 (ip), vehicle: steriod suspending solution) 111 % of control; (dose: 50.0 mg/kg/injection, schedule: Q01DX009 (sc), vehicle: Klucel (hydroxypropylcellulose) (HPC)) 100 % of control; (dose: 50.0 mg/kg/injection, schedule: Q01DX009 (sc), vehicle: steriod suspending solution) 100 % of control. In addition, the T/C (dose: 80.0 mg/kg/injection, schedule: Q01DX009 (ip), vehicle: clinical formulation) was 88 % of control; the T/C (dose: 80.0 mg/kg/injection, schedule: Q01DX009 (ip), vehicle: other) was 100 % of control; the T/C (dose: 80.0 mg/kg/injection, schedule: Q01DX009 (sc), vehicle: clinical formulation) is 100 % of control; the T/C (dose: 100.0 mg/kg/injection, schedule: Q01DX009 (ip), vehicle: Klucel (hydroxypropylcellulose) (HPC)) is 155 % of control; the T/C (dose: 100.0 mg/kg/injection, schedule: Q01DX009 (ip), vehicle: steriod suspending solution) is 111 % of control; the T/C (dose: 100.0 mg/kg/injection, schedule: Q01DX009 (sc), vehicle: Klucel (hydroxypropylcellulose) (HPC)) is 111 % of control. The T/C by setting is: (dose: 100.0 mg/kg/injection, schedule: Q01DX009 (sc), vehicle: steriod suspending solution) 100 % of control; (dose: 100.0 mg/kg/injection, schedule: Q08DX009 (sc), vehicle: Klucel (hydroxypropylcellulose) (HPC)) 100 % of control and 101 % of control; (dose: 200.0 mg/kg/injection, schedule: Q01DX009 (ip), vehicle: steriod suspending solution) 111 % of control; (dose: 200.0 mg/kg/injection, schedule: Q01DX009 (sc), vehicle: Klucel (hydroxypropylcellulose) (HPC)) 172 % of control; (dose: 200.0 mg/kg/injection, schedule: Q01DX009 (sc), vehicle: steriod suspending solution) 105 % of control; (dose: 200.0 mg/kg/injection, schedule: Q08DX009 (sc), vehicle: Klucel (hydroxypropylcellulose) (HPC)) 105 % of control. For the same molecule, the T/C is 150 % of control (dose: 400.0 mg/kg/injection, schedule: Q01DX009 (ip), vehicle: steriod suspending solution); 183 % of control (dose: 400.0 mg/kg/injection, schedule: Q01DX009 (sc), vehicle: Klucel (hydroxypropylcellulose) (HPC)); 166 % of control (dose: 400.0 mg/kg/injection, schedule: Q01DX009 (sc), vehicle: steriod suspending solution); 98 % of control and 100 % of control (dose: 400.0 mg/kg/injection, schedule: Q08DX009 (sc), vehicle: Klucel (hydroxypropylcellulose) (HPC)); 166 % of control (dose: 800.0 mg/kg/injection, schedule: Q01DX009 (sc), vehicle: steriod suspending solution); 88 % of control and 93 % of control (dose: 2313.0 mg/kg/injection, schedule: Q01DX009 (sc), vehicle: Klucel (hydroxypropylcellulose) (HPC)). For the same molecule, where the note is “dose: 3855.0 mg/kg/injection, schedule: Q01DX009 (sc), vehicle: Klucel (hydroxypropylcellulose) (HPC)”, the T/C is 87 % of control.

On to `NCC(=O)NC1(C(=O)O)CCCC1` (H-Gly-[Ac5c]-OH), for which the T/C reads like this: (dose: 55.0 mg/kg/injection, schedule: Q01DX Z (sc), vehicle: water) 105 % of control; (dose: 91.0 mg/kg/injection, schedule: Q01DX Z (sc), vehicle: water) 105 % of control; (dose: 152.0 mg/kg/injection, schedule: Q01DX Z (sc), vehicle: water) 105 % of control; (dose: 253.0 mg/kg/injection, schedule: Q01DX Z (sc), vehicle: water) 157 % of control.

For the molecule `COC(=O)c1[nH]c(=O)[nH]c(=O)c1F`, the T/C was 111 % of control under setting [1]; 158 % of control (dose: 10.0 mg/kg/injection, schedule: Q01DX Z (sc), vehicle: methylcellulose (MC)); 164 % of control (dose: 20.0 mg/kg/injection, schedule: Q01DX Z (sc), vehicle: methylcellulose (MC)); 158 % of control (dose: 40.0 mg/kg/injection, schedule: Q01DX Z (sc), vehicle: methylcellulose (MC)); 152 % of control (dose: 80.0 mg/kg/injection, schedule: Q01DX Z (sc), vehicle: methylcellulose (MC)).
